We go through seven molecules from patent US6214615A (The United States of America as represented by the …, priority 1996, dated 2001).

Assay [1] deals with T1, human dopamine D2 receptor (Homo sapiens, UniProt P14416). The settings on record: 0.7 nM ^3 H-raclopride; transfected COS-7 cells.
Protocol: Expression and Transfection. […] COS-7 cells were plated at a density of 1×10^6 cells/10 cm dish.
(§1) Radioligand binding. Cells were scraped 48-72 hours after transfection into 10 ml of PBS/10 cm dish and pelleted at 1000× g. Cells were resuspended in 10 mM Tris, 1 mM EDTA, 5 mM MgCl2 and homogenized with a polytron (Brinkman). A total particulate fraction was prepared by centrifugation at 45,000× g for 15 min. […] Reactions were initiated by addition of 0.4 ml of tissue in binding buffer to 0.1 ml of drugs. […] Reactions were terminated by filtering membranes through Whatman GFC filters using a cell harvester (Brandel). Data were analyzed by nonlinear regression on a VAX II computer using the program DATAPLOT (distributed by the National Technical Information Service).
The target in assay [2] is T1, human dopamine D2 receptor. The assay can be described thus: Saturation radioligand binding to membranes of transfected COS-7 cells. On the set-up: rescreened with the S1 probe alone to identify those most likely to be full length; expressed in transfected cells; host or cells: COS-7 cells (transient, 16A-pCD-PS DNA).
Protocol: COS-7 cells were plated at a density of 1×10^6 cells/10 cm dish. One to two days after plating, cells were transfected with 16A-pCD-PS DNA using a modification of the calcium phosphate precipitation procedure.
as §1

T1 sequence (P14416 1-414 isoform P14416-2): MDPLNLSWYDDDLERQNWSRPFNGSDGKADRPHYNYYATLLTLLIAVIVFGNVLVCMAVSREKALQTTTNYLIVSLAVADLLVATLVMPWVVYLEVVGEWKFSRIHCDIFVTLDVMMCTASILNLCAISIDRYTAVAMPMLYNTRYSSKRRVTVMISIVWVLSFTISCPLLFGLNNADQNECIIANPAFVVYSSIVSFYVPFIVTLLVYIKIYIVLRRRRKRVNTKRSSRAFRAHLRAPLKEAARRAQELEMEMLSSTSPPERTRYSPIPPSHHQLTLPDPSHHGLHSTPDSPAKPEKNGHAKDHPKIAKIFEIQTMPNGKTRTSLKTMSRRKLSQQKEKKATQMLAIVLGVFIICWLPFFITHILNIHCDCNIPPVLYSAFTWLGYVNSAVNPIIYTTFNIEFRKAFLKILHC

On to `CCN1CCC[C@@H]1CNC(=O)c1cc(S(N)(=O)=O)ccc1OC` [(+)sulphride], for which the “n (hill number)” value in assay [1] was 1.0 ± 0.1.

Take `CCN1CCC[C@H]1CNC(=O)c1cc(S(N)(=O)=O)ccc1OC` [(-)sulphride]: the “n (hill number)” value in assay [1] amounted to 1.2 ± 0.2.

Regarding `NCCc1ccc(O)c(O)c1` [dopamine], the “n (hill number)” value in assay [1] is 1.1 ± 0.1.

With `CCN1CCC[C@H]1CNC(=O)c1c(O)c(Cl)cc(Cl)c1OC` [^3 H-raclopride], in assay [2] (COS-7 transfected with 16A-pCD-PS), the “maximum number of binding sites” value is 800±110 fmole/mg protein.

Regarding ^3 H-SCH23396, the “displacable binding to transfected COS-7 cells” value in assay [2] (concentrations up to 5 nM, displaced by chlorpromazine) was “did not show significant displacable binding”.

Turning to `CN1CCc2cccc3c2[C@H]1Cc1ccc(O)c(O)c1-3` [apomorphine], the “n (hill number)” value in assay [1] came to 1.0 ± 0.1.

Regarding `CN(C)CCCN1c2ccccc2Sc2ccc(Cl)cc21` [chlorpromazine], in assay [1], the “n (hill number)” value turned out to be 0.9 ± 0.1.
